Data on two molecules can be found in patent US12202868B1, “Stapled and specifically targeted antimicrobial peptide” (KING SAUD UNIVERSITY, priority 2024, dated 2025).

One may read the zone of inhibition as the extent of the growth-free halo in a diffusion test.

≈ marks a conversion by molar mass, not a printed value. Read-outs that look alike come from different tables or passages of the source. Positions of bridges follow the written chain, without caps; N, C: chain ends. Non-standard residues stand in square brackets, D forms with d. Residues, ends and D or L forms follow the SMILES beside them. S5 = C=CCCC[C@](C)(N)C(=O)O

In one series the test system is Bacillus subtilis. Nature of the series: microbe, parasite or virus in culture. The format is cell-based. The settings on record: B. subtilis, 30 μl in 6 mm well, ssTAMP 100 μg/ml, Kanamycin 10 μg/ml, 24 hours, mean±SD, n=3. The procedure: (§1) Microbial cultures were procured from the microbiology department, College of Pharmacy, King Saud University, Riyadh. Strains were grown aerobically at 37° C. with shaking in Muller Hilton media.
(§2) The agar diffusion method was used to examine the synthesized ssTAMP's antibacterial activity. Pure colonies of Bacillus subtilis, Streptococcus pneumonia, Staphalycoccus aureus, Streptococcus mutans, Escherichia coli, and Kleibsella pneumonia were used for antibacterial susceptibility testing according to Clinical Laboratory Standards Institute (CLSI) 2021 guidelines by using a modified Kirby-Bauer disk diffusion technique. In brief, homogeneous colonies were chosen from each microbial strain and grown on Mullar Hilton broth at log phase. 0.5 McFarland standard culture was used to spread on to the Mullar Hilton agar plates. Freshly prepared 30 μl each of Kanamycin 10 μg/ml and ssTAMP 100 μg/ml was poured into 6 mm diameter well, blank well with equivalent amount of saline served as a […]. The plates were incubated for 24 hours, and the diameter of the inhibition zone was measured to determine if the findings were susceptible or resistant. The full analysis was carried out three times.
(§3) The agar diffusion method was used to test antimicrobial susceptibility of sSTAMP against B. Subtilis, S. Pneumoniae, S. Aureus, S. Mutans, E. Coli, and Kleibsella pneumonia strains (FIG. 1).

For another series, the system named is Escherichia coli. Nature of the series: microbe, parasite or virus in culture. The class given is cell-based. The note with it: E. coli, 30 μl in 6 mm well, ssTAMP 100 μg/ml, Kanamycin 10 μg/ml, 24 hours, mean±SD, n=3. The procedure:
as §1, §2, §3

A further series concerns Staphylococcus aureus. Nature of the series: microbe, parasite or virus in culture. The format is cell-based. The settings on record: S. aureus, 30 μl in 6 mm well, ssTAMP 100 μg/ml, Kanamycin 10 μg/ml, 24 hours, mean±SD, n=3. As to the method:
as §1, §2, §3

For a further series, the system named is Streptococcus mutans. As to the kind of experiment: microbe, parasite or virus in culture. The class given is cell-based. The settings on record: S. mutans, 30 μl in 6 mm well, ssTAMP 100 μg/ml, Kanamycin 10 μg/ml, 24 hours, mean±SD, n=3. As to the method:
as §1, §2, §3

Another series concerns Streptococcus pneumonia. As to the kind of experiment: microbe, parasite or virus in culture. The class given is cell-based. The settings on record: S. pneumonia, 30 μl in 6 mm well, ssTAMP 100 μg/ml, Kanamycin 10 μg/ml, 24 hours, mean±SD, n=3. The procedure:
as §1, §2, §3

Series [1] has as its system Kleibsella pneumonia. Nature of the series: organism not typed. The settings on record: 30 μl in 6 mm well, ssTAMP 100 μg/ml, Kanamycin 10 μg/ml, 24 hours, mean±SD, n=3. The format is cell-based. The procedure: as §1, §2, §3
The subject of series [2] is B. subtilis.
Series [3] concerns S. pneumonia.
The subject of series [4] is S. mutans.
The test system of series [5] is E. coli.
Series [6] relates to Kleibsella pneumonia.
Series [7] concerns Kleibsella pneumonia. As to the kind of experiment: organism not typed. The note with it: read-out: Minimum Inhibitory concentration.
The subject of series [8] is B. subtilis. As to the kind of experiment: microbe, parasite or virus in culture. The settings on record: Bacillus subtilis, read-out: Minimum Inhibitory concentration.
Series [9] relates to S. pneumonia. As to the kind of experiment: microbe, parasite or virus in culture. The note with it: Streptococcus pneumoniae, read-out: Minimum Inhibitory concentration.
Series [10] has as its system S. aureus. Nature of the series: microbe, parasite or virus in culture. The note with it: Staphylococcus aureus, read-out: Minimum Inhibitory concentration.
For series [11], the system named is S. mutans. As to the kind of experiment: microbe, parasite or virus in culture. The note with it: Streptococcus mutans, read-out: Minimum Inhibitory concentration.
Series [12] deals with E. coli. As to the kind of experiment: microbe, parasite or virus in culture. The settings on record: Escherichia coli, read-out: Minimum Inhibitory concentration.
The subject of another series is A549 lung cancer cells. The class given is cell-based. The note with it: human, 24 h. The procedure: (§4) MCF-7 and A549 cells were cultured under aseptic conditions at 37° C. and 5% CO2 using Dulbecco's Modified Eagle's Medium (DMEM), accompanied with 1% mixture of “Penicillin-Streptomycin”, and 10% Fetal Bovine Serum (FBS). The cells were processed and grown in a sterile environment and all the procedures were done in a biosafety cabinet. The cells were harvested using 0.25% trypsin containing EDTA and phenol red, once they reached around 80% confluency. To test the in-vitro toxicity of the antimicrobial peptide, the harvested cells were seeded in 96 well plates for conducting a cell viability assay using MTT (3-(4,5-dimethylthiazol-2-yl)-2,5-diphenyl tetrazolium bromide).
(§5) In order to investigate the in-vitro cytotoxicity of ssTAMP using the MTT assay, cell viability was carried out in MCF-7 and A549 cells. To achieve a cell density of 5×10^5 cells/mL, trypsin was introduced to the cells during their exponential phase of growth. After that, 100 μL of media and the cell suspension (15000 cells/well) were placed on a flat-bottomed microplate, where they were left to attach to the bottom overnight. The following day, 10 μL of freshly prepared medium containing ssTAMP concentrations ranging from 7.81 to 1000 µg/mL was added to the preexisting medium. As a negative control, a triplicate of untreated, FBS-free DMEM were used. Each product's dilution was tested three times. After 24 hours, the media was carefully removed from the wells. After that, 10 μL of MTT solution (5 mg/mL in PBS) and 90 μL of the medium were added. After that, this combination was incubated for 4 hours at room temperature. The medium and MTT in the culture fluid were then drawn out, leaving the formazan crystal precipitate. Formazan was dissolved for 15 minutes at room temperature in a […]. At 570 nm, the absorbance was measured (Synergy HT, BioTek Inst., VT, USA). Cell viability was calculated as a percentage of the absorbance when compared with negative control considered as 100%. The cytotoxic effects of ssTAMP on MCF-7 and A549 cells were expressed as IC50 values.
(§6) The percentage cell viabilities of MCF-7 breast cancer cells and A549 lung cancer cells against varying concentrations of ssTAMP are presented in FIGS. 3A-3B. […] The cytotoxicity starts to appear at the lowest concentration of ssTAMP used (7.81 μg/mL in MCF-7, and 15.62 μg/mL in A549). The effect pattern of the ssTAMP in both the cell lines is similar up to the concentration of 250 μg/mL. However MCF-7 appear to be more sensitive at higher concentrations of ssTAMP above 250 μg/mL.

For series [13], the system named is MCF-7 breast cancer cells. The format is cell-based. The note with it: human, 24 h. The procedure: as §4, §5, §6
Series [14] has as its system S. aureus.
[15] abbreviates: B. subtilis, microdilution, overnight 37° C., mean±SD, n=3.
Setting [16] is: S. pneumonia, microdilution, overnight 37° C., mean±SD, n=3.
[17] abbreviates: S. mutans, microdilution, overnight 37° C., mean±SD, n=3.
[18] abbreviates: E. coli, microdilution, overnight 37° C., mean±SD, n=3.
Setting [19] is: Kleibsella pneumonia, microdilution, overnight 37° C., mean±SD, n=3.

`NC[C@H]1O[C@H](O[C@H]2[C@H](O)[C@@H](O[C@H]3O[C@H](CO)[C@@H](O)[C@H](N)[C@H]3O)[C@H](N)C[C@@H]2N)[C@H](O)[C@@H](O)[C@@H]1O` [Kanamycin]: the Zone of inhibition was 16.40 ± 0.46 mm in the series with Bacillus subtilis; 14.90 ± 0.25 mm in the series with Escherichia coli; 16.07 ± 0.45 mm in the series with Staphylococcus aureus; 18.37 ± 0.58 mm in the series with Streptococcus mutans; 15.70 ± 0.4 mm with Streptococcus pneumonia; 15.10 ± 0.74 mm in the series with Kleibsella pneumonia [1]. Also, the zone of inhibition at 10 µg/mL in the series on Bacillus subtilis (Bacillus subtilis) was found to be 16.4 ± 0.46 mm; in the series on Escherichia coli (Escherichia coli), 14.9 ± 0.25 mm; in the series with Staphylococcus aureus (Staphylococcus aureus), 16.1 ± 0.45 mm; in the series on Streptococcus mutans (Streptococcus mutans), 18.4 ± 0.58 mm; with Streptococcus pneumonia (Streptococcus pneumoniae), 15.7 ± 0.4 mm; in the series with Kleibsella pneumonia [1], 15.1 ± 0.74 mm. The “Minimum Inhibitory concentration” value came to 1.67 ± 0.42 µg/mL in the series on B. subtilis [2] (setting [15]); 1.67 ± 0.42 µg/mL in the series on S. pneumonia [3] (setting [16]); 1.04 ± 0.21 µg/mL in the series with S. mutans [4] (setting [17]); 1.46 ± 0.55 µg/mL in the series with E. coli [5] (setting [18]); 1.25 ± 0.00 µg/mL with Kleibsella pneumonia [6] (setting [19]). Also, the MIC stood at 1.25 µg/mL (≈ 2.58 µM) in the series with Kleibsella pneumonia [7]; 1.67 ± 0.42 µg/mL (≈ 3.45 µM) in the series on B. subtilis [8]; 1.67 ± 0.42 µg/mL (≈ 3.45 µM) in the series on S. pneumonia [9]; 1.67 ± 0.42 µg/mL (≈ 3.45 µM) in the series on S. aureus [10]; 1.04 ± 0.21 µg/mL (≈ 2.15 µM) in the series with S. mutans [11]; 1.46 ± 0.55 µg/mL (≈ 3.01 µM) in the series on E. coli [12].
Take `CC[C@H](C)[C@H](NC(=O)[C@H](CCCNC(=N)N)NC(=O)[C@H](CCCCN)NC(=O)[C@]1(C)CCCC=CCCC[C@](C)(NC(=O)[C@H](CCCCN)NC(=O)[C@H](CCC(=O)O)NC(=O)[C@H](CCCCN)NC(=O)[C@H](CO)NC(=O)[C@H](CCCCN)NC(=O)[C@H](CCCNC(=N)N)NC(=O)[C@H](Cc2ccccc2)NC(=O)[C@H](Cc2ccccc2)NC(=O)CNC(=O)CNC(=O)[C@H](CC(N)=O)NC(=O)[C@H](CCCNC(=N)N)NC(=O)[C@H](Cc2ccccc2)NC(=O)[C@@H](NC(=O)[C@H](C)NC(=O)[C@@H](NC(=O)[C@H](CC(=O)O)NC(=O)[C@H](CCCCN)NC(=O)[C@H](CCC(=O)O)NC(=O)CNC(=O)[C@@H](NC(=O)[C@H](CO)NC(=O)[C@@H]2CCCN2C(=O)[C@@H](N)CC(C)C)[C@@H](C)O)[C@@H](C)O)C(C)C)C(=O)NCC(=O)N[C@@H](CCCCN)C(=O)N[C@@H](CCC(=O)O)C(=O)N1)C(=O)N[C@H](C(N)=O)C(C)C` [ssTAMP] (H-LPSTGEKDTAVFRNGGFFRKSKEK[S5]GKE[S5]KRIV-NH2; staple 25-29; N-terminus assumed): the Zone of inhibition with Bacillus subtilis came out at 20.63±0.85 mm; in the series on Escherichia coli, 24.30±1.08 mm; with Staphylococcus aureus, 9.60±0.32 mm; in the series on Streptococcus mutans, 22.23±1.39 mm; in the series on Streptococcus pneumonia it was 20.17±0.72 mm; in the series with Kleibsella pneumonia [1] it was 23.47±1.40 mm. The “IC50, cytotoxicity by MTT assay” value with A549 lung cancer cells turned out to be 265.0 µg/mL; in [13], 558.2 µg/mL. Besides, the cells viable entry (in the series with A549 lung cancer cells (250 μg/ml); in [13] (250 μg/ml)) was “more than 50%” each time. Further, the “Minimum Inhibitory concentration” value with B. subtilis [2] came to 8.33 ± 2.08 µg/mL; with B. subtilis [2] (setting [15]) it was 8.33 ± 2.08 µg/mL; in the series on S. pneumonia [3], 10.42 ± 2.08 µg/mL; with S. pneumonia [3] (setting [16]), 10.42 ± 2.08 µg/mL; in the series on S. aureus [14], 12.50 ± 0.000 µg/mL; in the series on S. aureus [14] (S. aureus, microdilution, overnight 37° C., mean±SD, n=3), 12.50 ± 0.000 µg/mL. For the same molecule, the “Minimum Inhibitory concentration” value in the series on S. mutans [4] was determined as 8.33 ± 2.08 µg/mL; with S. mutans [4] (setting [17]) it was 8.33 ± 2.08 µg/mL; in the series on E. coli [5], 5.21 ± 1.05 µg/mL; in the series on E. coli [5] (setting [18]) it was 5.21 ± 1.05 µg/mL; with Kleibsella pneumonia [6], 5.21 ± 1.042 µg/mL; with Kleibsella pneumonia [6] (setting [19]), 5.21 ± 1.042 µg/mL.
